{"source": "patent US20230058171A1", "about": "“NEW ORAL PHARMACEUTICAL COMPOSITION FOR CANCER THERAPY” (BOEHRINGER INGELHEIM INTERNATIONAL GMBH, priority 2021, published 2023)", "assay": "Preliminary pharmacokinetics in trial 1403-0001 (Arm A D1 q3w, Arm B D1 D8 q4w)", "type": "in vivo, human", "conditions": "for % AUCtz-∞ / AUC0-∞, norm / CL/F / Cmax, norm / AUC(0-inf) / Cmax / Vd/F / half-life: gMean; for Cmax, norm (gMean) / % AUCtz-∞ (gMean) / AUC0-∞, norm, gMean (gCV [%]) / CL/F (gMean): Arm A D1 q3w; for AUC(0-inf) / Cmax / Vd/F / half-life / Tmax: human, plasma, oral; for AUC(0-inf): read-out: AUC0-∞; for Cmax: read-out: Cmax; for Vd/F: read-out: Vz/F; for half-life: read-out: t1/2 (converted); for Tmax: median, read-out: tmax", "description": "Preliminary PK data were available from the first 45 treated patients in study 1403-0001. The exploratory PK analysis is based on planned blood sampling time-points and the results are subject to change because not all samples from these patients have been analyzed yet. Therefore, AUCs may be incomplete. In addition, information on the absorption, distribution, and elimination of the MDM2 antagonist of formula I are descriptive given the limited exploratory PK results available up to this point in time.\nConsequently the preliminary PK results support the dose selection of 45 mg (and alternatively even of 30 mg) combined with the once in three weeks (D1 q3w) dose regimen. The tmax of the MDM2 antagonist of formula I is generally between 4 and 6 hours after tablet intake.", "key": {"[1]": {"conditions": "5 mg, Day 1, D1 D8 q4w (Arm B), N=3"}, "[2]": {"conditions": "5 mg, Day 8, D1 D8 q4w (Arm B), N=3"}, "[3]": {"conditions": "10 mg, Day 1, D1 D8 q4w (Arm B), N=3"}, "[4]": {"conditions": "10 mg, Day 8, D1 D8 q4w (Arm B), N=3"}, "[5]": {"conditions": "15 mg, Day 1, D1 D8 q4w (Arm B), N=3"}, "[6]": {"conditions": "15 mg, Day 8, D1 D8 q4w (Arm B), N=2"}, "[7]": {"conditions": "20 mg, Day 1, D1 D8 q4w (Arm B), N=3"}, "[8]": {"conditions": "20 mg, Day 8, D1 D8 q4w (Arm B), N=3"}, "[9]": {"conditions": "30 mg, Day 1, D1 D8 q4w (Arm B), N=4"}, "[10]": {"conditions": "30 mg, Day 8, D1 D8 q4w (Arm B), N=3"}, "[11]": {"conditions": "45 mg, Day 1, D1 D8 q4w (Arm B), N=2"}, "[12]": {"conditions": "60 mg, Day 1, D1 D8 q4w (Arm B), N=2"}}, "note": "Where two headings read alike, the source gives them in different places.", "data": [{"molecule": "Cc1c(C(=O)O)ccc2c3n(nc12)[C@@H]1[C@H](C3)N(CC2CC2)[C@@]2(C(=O)Nc3cc(Cl)ccc32)[C@H]1c1cccc(Cl)c1F", "note": "[MDM2-antagonist of formula I, (2′S,3′S,3a'S,10a'S)-6-chloro-3′-(3-chloro-2-fluorophenyl)-1′-(cyclopropylmethyl)-6′-methyl-2-oxo-1,2,3′,3a′,10′,10a′-hexahydro-1′H-spiro[indole-3,2′-pyrrolo[2′,3′:4,5]pyrrolo[1,2-b]indazole]-7′-carboxylic acid]", "values": [{"measurement": "% AUCtz-∞", "setting": "[1]", "value": 10.2, "unit": "%"}, {"measurement": "AUC0-∞, norm", "setting": "[1]", "value": 3530, "unit": "nmol·h/L/mg"}, {"measurement": "CL/F", "setting": "[1]", "value": 7.99, "unit": "mL/min"}, {"measurement": "Cmax, norm", "setting": "[1]", "value": 51.9, "unit": "nmol/L/mg"}, {"measurement": "% AUCtz-∞", "setting": "[2]", "value": 30.2, "unit": "%"}, {"measurement": "AUC0-∞, norm", "setting": "[2]", "value": 3860, "unit": "nmol·h/L/mg"}, {"measurement": "CL/F", "setting": "[2]", "value": 7.31, "unit": "mL/min"}, {"measurement": "Cmax, norm", "setting": "[2]", "value": 67.2, "unit": "nmol/L/mg"}, {"measurement": "% AUCtz-∞", "setting": "[3]", "value": 10.8, "unit": "%"}, {"measurement": "AUC0-∞, norm", "setting": "[3]", "value": 5230, "unit": "nmol·h/L/mg"}, {"measurement": "CL/F", "setting": "[3]", "value": 5.39, "unit": "mL/min"}, {"measurement": "Cmax, norm", "setting": "[3]", "value": 63.8, "unit": "nmol/L/mg"}, {"measurement": "% AUCtz-∞", "setting": "[4]", "value": 31.6, "unit": "%"}, {"measurement": "AUC0-∞, norm", "setting": "[4]", "value": 4840, "unit": "nmol·h/L/mg"}, {"measurement": "CL/F", "setting": "[4]", "value": 5.82, "unit": "mL/min"}, {"measurement": "Cmax, norm", "setting": "[4]", "value": 71.4, "unit": "nmol/L/mg"}, {"measurement": "% AUCtz-∞", "setting": "[5]", "value": 2.89, "unit": "%"}, {"measurement": "AUC0-∞, norm", "setting": "[5]", "value": 2520, "unit": "nmol·h/L/mg"}, {"measurement": "CL/F", "setting": "[5]", "value": 11.2, "unit": "mL/min"}, {"measurement": "Cmax, norm", "setting": "[5]", "value": 55.4, "unit": "nmol/L/mg"}, {"measurement": "% AUCtz-∞", "setting": "[6]", "value": 14.8, "unit": "%"}, {"measurement": "AUC0-∞, norm", "setting": "[6]", "value": 1720, "unit": "nmol·h/L/mg"}, {"measurement": "CL/F", "setting": "[6]", "value": 16.4, "unit": "mL/min"}, {"measurement": "Cmax, norm", "setting": "15 mg, Day 8, D1 D8 q4w (Arm B), N=3", "value": 51.7, "unit": "nmol/L/mg"}, {"measurement": "% AUCtz-∞", "setting": "[7]", "value": 8.63, "unit": "%"}, {"measurement": "AUC0-∞, norm", "setting": "[7]", "value": 4440, "unit": "nmol·h/L/mg"}, {"measurement": "CL/F", "setting": "[7]", "value": 6.34, "unit": "mL/min"}, {"measurement": "Cmax, norm", "setting": "[7]", "value": 68.4, "unit": "nmol/L/mg"}, {"measurement": "% AUCtz-∞", "setting": "[8]", "value": 25.9, "unit": "%"}, {"measurement": "AUC0-∞, norm", "setting": "[8]", "value": 3050, "unit": "nmol·h/L/mg"}, {"measurement": "CL/F", "setting": "[8]", "value": 9.22, "unit": "mL/min"}, {"measurement": "Cmax, norm", "setting": "[8]", "value": 60.9, "unit": "nmol/L/mg"}, {"measurement": "% AUCtz-∞", "setting": "[9]", "value": 6.72, "unit": "%"}, {"measurement": "AUC0-∞, norm", "setting": "[9]", "value": 2660, "unit": "nmol·h/L/mg"}, {"measurement": "CL/F", "setting": "[9]", "value": 10.6, "unit": "mL/min"}, {"measurement": "Cmax, norm", "setting": "[9]", "value": 48.0, "unit": "nmol/L/mg"}, {"measurement": "% AUCtz-∞", "setting": "[10]", "value": 18.9, "unit": "%"}, {"measurement": "AUC0-∞, norm", "setting": "[10]", "value": 2160, "unit": "nmol·h/L/mg"}, {"measurement": "CL/F", "setting": "[10]", "value": 13.0, "unit": "mL/min"}, {"measurement": "Cmax, norm", "setting": "[10]", "value": 44.3, "unit": "nmol/L/mg"}, {"measurement": "% AUCtz-∞", "setting": "[11]", "value": 4.72, "unit": "%"}, {"measurement": "AUC0-∞, norm", "setting": "[11]", "value": 2150, "unit": "nmol·h/L/mg"}, {"measurement": "CL/F", "setting": "[11]", "value": 13.1, "unit": "mL/min"}, {"measurement": "Cmax, norm", "setting": "[11]", "value": 51.7, "unit": "nmol/L/mg"}, {"measurement": "% AUCtz-∞", "setting": "[12]", "value": 7.08, "unit": "%"}, {"measurement": "AUC0-∞, norm", "setting": "[12]", "value": 1460, "unit": "nmol·h/L/mg"}, {"measurement": "CL/F", "setting": "[12]", "value": 19.3, "unit": "mL/min"}, {"measurement": "Cmax, norm", "setting": "[12]", "value": 32.7, "unit": "nmol/L/mg"}, {"measurement": "Cmax, norm", "setting": "60 mg, Day 8, D1 D8 q4w (Arm B), N=2", "value": 31.5, "unit": "nmol/L/mg"}, {"measurement": "Cmax, norm (gMean)", "setting": "20 mg, N=2", "value": 58.2, "unit": "nmol/L/mg"}, {"measurement": "% AUCtz-∞ (gMean)", "setting": "30 mg, N=3", "value": 24.6, "unit": "%"}, {"measurement": "AUC0-∞, norm, gMean (gCV [%])", "setting": "30 mg, N=3", "value": "3760 (46.8) nmol*h/L/mg"}, {"measurement": "CL/F (gMean)", "setting": "30 mg, N=3", "value": 7.50, "unit": "mL/min"}, {"measurement": "Cmax, norm (gMean)", "setting": "30 mg, N=3", "value": 96.4, "unit": "nmol/L/mg"}, {"measurement": "% AUCtz-∞ (gMean)", "setting": "45 mg, N=6", "value": 29.2, "unit": "%"}, {"measurement": "AUC0-∞, norm, gMean (gCV [%])", "setting": "45 mg, N=6", "value": "3040 (53.6) nmol*h/L/mg"}, {"measurement": "CL/F (gMean)", "setting": "45 mg, N=6", "value": 9.28, "unit": "mL/min"}, {"measurement": "Cmax, norm (gMean)", "setting": "45 mg, N=6", "value": 60.2, "unit": "nmol/L/mg"}, {"measurement": "% AUCtz-∞ (gMean)", "setting": "50 mg, N=4", "value": 19.7, "unit": "%"}, {"measurement": "AUC0-∞, norm, gMean (gCV [%])", "setting": "50 mg, N=4", "value": "6280 (37.3) nmol*h/L/mg"}, {"measurement": "CL/F (gMean)", "setting": "50 mg, N=4", "value": 4.49, "unit": "mL/min"}, {"measurement": "Cmax, norm (gMean)", "setting": "50 mg, N=4", "value": 74.8, "unit": "nmol/L/mg"}, {"measurement": "% AUCtz-∞ (gMean)", "setting": "60 mg, N=6", "value": 3.71, "unit": "%"}, {"measurement": "AUC0-∞, norm, gMean (gCV [%])", "setting": "60 mg, N=6", "value": "2710 (33.4) nmol*h/L/mg"}, {"measurement": "CL/F (gMean)", "setting": "60 mg, N=6", "value": 10.4, "unit": "mL/min"}, {"measurement": "Cmax, norm (gMean)", "setting": "60 mg, N=7", "value": 54.5, "unit": "nmol/L/mg"}, {"measurement": "% AUCtz-∞ (gMean)", "setting": "80 mg, N=2", "value": 2.54, "unit": "%"}, {"measurement": "AUC0-∞, norm, gMean (gCV [%])", "setting": "80 mg, N=2", "value": "2570 (29.2) nmol*h/L/mg"}, {"measurement": "CL/F (gMean)", "setting": "80 mg, N=2", "value": 11.0, "unit": "mL/min"}, {"measurement": "Cmax, norm (gMean)", "setting": "80 mg, N=2", "value": 49.2, "unit": "nmol/L/mg"}, {"measurement": "AUC(0-inf)", "setting": "[1]", "value": 17.6, "unit": "µM·h"}, {"measurement": "Cmax", "setting": "[1]", "value": 260, "unit": "nM"}, {"measurement": "Vd/F", "setting": "[1]", "value": 38.2, "unit": "L"}, {"measurement": "half-life", "setting": "[1]", "value": 55.3, "unit": "h"}, {"measurement": "Tmax", "setting": "[1]", "value": 4, "unit": "h"}, {"measurement": "AUC(0-inf)", "setting": "[2]", "value": 19.3, "unit": "µM·h"}, {"measurement": "Cmax", "setting": "[2]", "value": 336, "unit": "nM"}, {"measurement": "Vd/F", "setting": "[2]", "value": 29.2, "unit": "L"}, {"measurement": "half-life", "setting": "[2]", "value": 46.2, "unit": "h"}, {"measurement": "Tmax", "setting": "[2]", "value": 4, "unit": "h"}, {"measurement": "AUC(0-inf)", "setting": "[3]", "value": 52.3, "unit": "µM·h"}, {"measurement": "Cmax", "setting": "[3]", "value": 638, "unit": "nM"}]}]}
